Laboratory results as given in patent publication US9115176B2, “Compounds, use thereof in cosmetic and cosmeceutic applications, and compositions comprising same” (Lucas Meyer Cosmetics Canada Inc., priority 2007, dated 2015).
* marks the point of attachment. Hexanoyl = CCCCCC(=O)*

Assays:
[1] = test system: Normal human dermal fibroblasts; assay: Neosynthesis of laminin in normal human dermal fibroblasts (E.I.A. kit, normalised to Bradford protein); type: cell-based; conditions: for Laminins (ng/μg proteins) % increase: 48 hours incubation, untreated control = 100.0%
Description: Normal human dermal fibroblasts were incubated for 48 hours in absence or presence of Transforming Growth Factor (TGF)-β at 50 ng/ml or of peptide I at two concentrations, namely 10^−6M and 10^−7M. At the end of the incubation period, laminins were quantified with the E.I.A. Enzyme Immuno Assay kit. Proteins contained in the cell lysate were also quantified by spectrocolorimetry according to the Bradford method. TGF-β and peptide I were tested in dose-response on the fibroblasts.
The data presented in Table I below represent the relative increase in laminin synthesis in a human dermal fibroblast culture medium in monolayers in the presence of peptide I, or TGF-β, as compared to untreated cells (control).

collagen VII = assay: Synthesis of collagen VII in human skin fragments treated with dermal corticosteroid (immunohistochemistry, semi-quantitative score); type: cell-based
Description: Fragments of normal human skin were treated or not in the presence of a dermal corticosteroid at 0.05% w/v and peptide I at a concentration of 10^−7M. Dermal corticosteroid are known to alter cell metabolism. The skin samples were then frozen at day 3 for an immunohistochemical analysis of collagen VII. The immunodetection was performed with a 3 coats indirect immunoperoxidase method (ABC Peroxidase kit, Vector laboratories) using a primary antibody specific to collagen VII.

laminin-5 = assay: Synthesis of laminin-5 in human skin fragments treated with dermal corticosteroid (immunohistochemistry, semi-quantitative score); type: cell-based
Description: Fragments of normal human skin were treated or not in the presence of a dermal corticosteroid at 0.05% w/v or peptide I at a concentration of 10^−7M. The skin samples were then frozen at day 3 for an immunohistochemical analysis of laminin-5. The immunodetection was performed with a 3 coats indirect immunoperoxidase method (BC Peroxidase kit, Vector laboratories) using a primary antibody specific to laminin-5.

crow's feet = assay: In vivo anti-wrinkle activity on crow's feet (photographs, silicone replicas, fringe projection); design: species or system human; conditions: 5 ppm in Table VI formulation, topical twice daily, after 28 and 56 days, versus placebo
Description: Peptide I was tested in the formulation described in Table VI below versus its placebo on 30 subjects (+10%) selected according to the inclusion/non inclusion criteria. [table] The study lasted 56 days following the first application. Volunteers applied the product twice daily on a randomised crow's foot of the temple. The study was a simple blind test, comparing the results obtained at one treated area following application of the composition comprising peptide I with those obtained at another treated area with the placebo. The evaluation of the efficacy of the formulation comprising peptide I was performed using: (a) illustrative digital photographs of the crow's feet; and (b) Silicone rubber replicas of the crow's feet (analysis of the wrinkles and of the skin network by fringe projection). In vitro fringe projection—Topometry—Wrinkles. […] All the silicone rubber replicas were analysed by fringe projection to observe the cutaneous relief. The following parameters were measured: (a) SPa: Average roughness; (b) SPq: Average dispersal of the variations of the relief; (c) SPt: Maximum amplitude of the relief and (d) SDev: Developed Surface. […] All the replicas were analysed by fringe projection to observe the skin network analysis. The following parameters were measured: (a) SRa: Average roughness (mm); and (b) SRq: Average with regards to the average quadratic (mm).

[2] = skin + corticosteroids 0.05% w/v + peptide I 10^−7M, day 3

Substance	Laminins (ng/μg proteins) % increase ([1]; 10^−6M)	Laminins (ng/μg proteins) % increase ([1]; 10^−7M)	Effect on laminin synthesis in human dermal fibroblast cells (in words) ([1]; summary of Table I)	Collagen VII score, relative change (collagen VII; [2])	Collagen VII labelling score (collagen VII; skin + corticosteroids 0.05% w/v + peptide I 10^−7M, day 3, control skin 1.9 ± 0.8)	Effect on synthesis of collagen VII in a human skin model (in words) (collagen VII; summary of Table III)	Laminin-5 score, relative change (laminin-5; [2])	Laminin-5 labelling score (laminin-5; skin + corticosteroids 0.05% w/v + peptide I 10^−7M, day 3, control skin 2.1 ± 1.3)	Effect on synthesis of laminin-5 in a human skin model (in words) (laminin-5; summary of Table V)	Crow's feet skin network roughness (in words) (crow's feet)	Reduction of the wrinkles (crow's feet roughness, in words) (crow's feet)	Laminins (ng/μg proteins) % increase ([1]; 50 ng/ml)
CH3—(CH2)4—CO-Lys-Gly-His-Lys-NH2 (Hexanoyl-KGHK-NH2; SMILES CCCCCC(=O)N[C@@H](CCCCN)C(=O)NCC(=O)N[C@@H](Cc1c[nH]cn1)C(=O)N[C@@H](CCCCN)C(N)=O) [Peptide I]	125.8%	125.9%	increases laminin synthesis	+34%	2.25 ± 0.2	increases the synthesis of collagen VII	+49%	2.2 ± 0.8	increases the synthesis of laminin-5	reduction of the crow's feet skin network roughness	potent efficacy	
TGF-β [reference compound]												109.9%
